Test results taken from PubChem BioAssay (NCI).
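Each compound was tested at five concentrations against cells in 96-well plates for 48 hours. TGI denotes the concentration required for complete inhibition of growth.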

Columns and labels:
Test in all cases: NCI-60 cell line screen, 48 h
[1] = tested on: OVCAR-4 ovarian
[2] = tested on: HOP-92 NSCLC
[3] = tested on: MDA-MB-435
[4] = tested on: HCT-15 colon
[5] = tested on: NCI-H460 lung
[6] = tested on: MDA-MB-231 breast
[7] = tested on: RPMI-8226 leukemia
[8] = tested on: HS 578T breast
[9] = tested on: A549 NSCLC
[10] = tested on: KM12 colon

Compound	TGI [1] [µM]	TGI [2] [µM]	TGI [3] [µM]	TGI [4] [µM]	TGI [5] [µM]	TGI [6] [µM]	TGI [7] [µM]	TGI [8] [µM]	TGI [9] [µM]	TGI [10] [µM]
Cc1ccc(S(=O)(=O)c2c(O)c3ccc(O)c(C)c3oc2=O)cc1	> 100	> 100	> 100	> 100	> 100	> 100	> 100	> 100	> 100	> 100
CCOC(=O)Cn1nnc2cc(Nc3c(C)[n+]([O-])c4cc(F)c(OCC)cc4[n+]3[O-])ccc21	> 100	49.5	> 100	> 100	> 100	> 100	> 100	> 100	–	> 100
O=P1(C(O)/C=C/c2ccccc2)N(Cc2ccccc2)[C@@H]2CCCC[C@H]2N1Cc1ccccc1 (stereo partly drawn)	26.5	7.48	15.1	43.8	14.7	26.2	4.59	10.6	43	19.5
COc1cccc(N2C(=O)CS(=O)(=O)C2c2cccc(Oc3ccccc3)c2)c1 (stereo not drawn)	> 100	68.5	> 100	> 100	31.1	> 100	–	70	> 100	> 100
C=C1CC(COc2ccc3c(C)c(C)c(=O)oc3c2C)(c2ccccc2)OC1=O (stereo not drawn)	4.82	2.96	7.96	3.84	18	7.86	0.764	13	26.7	9.35
CC1(C)N=C(N)N=C(N)N1c1cccc(OCc2cccc(N)c2)c1	> 100	> 100	> 100	> 100	> 100	> 100	> 100	> 100	> 100	> 100
CC1=C(C(=O)NC2CCCCC2)CC(C(=O)NC2CCCCC2)=C(C)N1	> 100	> 100	> 100	> 100	> 100	> 100	> 100	> 100	> 100	> 100
Nc1c(S(N)(=O)=O)cc(S(N)(=O)=O)cc1S(N)(=O)=O	> 100	> 100	> 100	> 100	> 100	> 100	> 100	> 100	> 100	> 100
O=C1N/N=C\c2ccc(cc2)OCc2cccc(n2)COc2ccc(cc2)/C=N\NC1=O	> 25	> 25	> 25	> 25	> 25	> 25	> 25	> 25	> 25	> 25
C#CCOCC12C=CC(O1)C1COC(=O)C12 (stereo not drawn)	> 100	> 100	> 100	> 100	> 100	> 100	> 100	> 100	> 100	> 100
